Assay results reported in US20160067311A1, “USE OF ELSIGLUTIDE TO TREAT GASTROINTESTINAL MUCOSITIS INCLUDING CHEMOTHERAPY-INDUCED DIARRHEA” (Helsinn Healthcare SA, priority 2014, published 2016).
Peptide text beside a SMILES is read from it.

Key:
[1] = human, in vivo
Description: (§1) Data on human exposure to elsiglutide generated so far originate from three clinical trials, one performed in healthy subjects (study 06-013) and two in cancer patients (TIDE-09-04, TIDE-11-10). The main objective of the first two studies was the evaluation of the safety, tolerability and maximum tolerated dose (MTD) of ascending elsiglutide doses administered as s.c. (both studies) and i.v. (only study 06-013) bolus injections. In study 06-013 elsiglutide was administered as single i.v. or s.c. bolus, while in study TIDE-09-04 each dose was administered as s.c. bolus on 4 consecutive days. Study TIDE-11-10 was a phase II proof of concept study that mainly evaluated the efficacy of elsiglutide administered as 24 mg daily s.c. bolus injections for 4 consecutive days in preventing CID in patients with colorectal cancer receiving 5-FU based chemotherapy (FOLFOX4 or FOLFIRI regimen). The secondary objectives of all three studies included the evaluation of the pharmacokinetics of elsiglutide and its major metabolites in humans.

[2] = Clinical pharmacokinetics of elsiglutide and its metabolites (studies 06-013, TIDE-09-04, TIDE-11-10)
Description: as §1

cancer patients = details: patients treated with the drug; cited from earlier work

SMILES | exposure to metabolite relative to exposure to the parent ZP1846 (elsiglutide) [1] [fold] | AUC of ZP2242 relative to that of ZP2712 ([2]; human, plasma) | half-life ([2]; human, plasma) [h] | dose dependence of pharmacokinetics (Cmax and AUC increases proportional to dose) ([2]; study TIDE-09-04, s.c. on 4 consecutive days) | patients in whom diarrhea occurs (cancer patients)
CC[C@H](C)[C@H](NC(=O)[C@H](CC(C)C)NC(=O)[C@H](Cc1c[nH]c2ccccc12)NC(=O)[C@H](C)NC(=O)[C@@H](NC(=O)[C@H](Cc1ccccc1)NC(=O)[C@H](CC(=O)O)NC(=O)[C@H](CCCNC(=N)N)NC(=O)[C@H](C)NC(=O)[C@H](C)NC(=O)[C@H](CC(C)C)NC(=O)[C@H](C)NC(=O)[C@H](CC(=O)O)NC(=O)[C@H](CC(C)C)NC(=O)[C@@H](NC(=O)[C@@H](NC(=O)[C@H](CO)NC(=O)[C@H](CC(C)C)NC(=O)[C@H](CCC(=O)O)NC(=O)[C@H](CO)NC(=O)[C@H](CO)NC(=O)[C@H](Cc1ccccc1)NC(=O)[C@H](CO)NC(=O)CNC(=O)[C@H](CCC(=O)O)NC(=O)CNC(=O)[C@@H](N)Cc1c[nH]cn1)[C@@H](C)O)[C@@H](C)CC)[C@@H](C)CC)C(=O)N[C@@H](C)C(=O)N[C@H](C(=O)N[C@@H](CCCCN)C(=O)N[C@H](C(=O)N[C@H](C(=O)N[C@@H](CC(=O)O)C(=O)N[C@@H](CCCCN)C(=O)O)[C@@H](C)O)[C@@H](C)CC)[C@@H](C)O [ZP2242] (H-HGEGSFSSELSTILDALAARDFIAWLIATKITDK-OH; N-terminus assumed) | > 25 | at least 10 times | 6 to 9 | dose independent | –
CS(=O)(=O)CCNCc1ccc(-c2ccc3ncnc(Nc4ccc(OCc5cccc(F)c5)c(Cl)c4)c3c2)o1 [lapatinib] | – | – | – | – | up to 60%
